The target in this assay is human TYK2 (JH2domain-pseudokinase) (Homo sapiens (Human), UniProt P29597). The assay can be described thus: TYK2 JH2 Domain Binding Assay (KINOMEscan, DiscoveRx). The conditions noted are these: 11-point dilution, duplicate. The essentials:
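TYK2 JH2 (G556–D888)–NFkB DBD fusion, DNA-tagged, from HEK293 extracts (<0.1 nM) competed against immobilised biotinylated ligand for 1 h at room temperature, 0.9% DMSO. Bead-retained kinase quantified by qPCR; Kd from 11-point 3-fold series (top 30,000 nM, duplicate), Hill fit with slope −1.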
Sequence of human TYK2 (JH2domain-pseudokinase) (P29597 556-888): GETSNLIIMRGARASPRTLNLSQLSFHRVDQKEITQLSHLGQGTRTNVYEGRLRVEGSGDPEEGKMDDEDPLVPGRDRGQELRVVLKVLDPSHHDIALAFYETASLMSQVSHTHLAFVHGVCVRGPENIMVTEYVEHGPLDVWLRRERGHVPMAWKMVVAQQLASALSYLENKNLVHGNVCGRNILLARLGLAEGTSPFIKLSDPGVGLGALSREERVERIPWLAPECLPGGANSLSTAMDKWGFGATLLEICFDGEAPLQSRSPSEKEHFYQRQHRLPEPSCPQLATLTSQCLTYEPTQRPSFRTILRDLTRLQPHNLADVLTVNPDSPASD
In turn, `CN(c1cc(-c2cncn2C)ccc1Nc1cc(NC(=O)[C@H]2C[C@@H]2F)nc2[nH]c(C(F)F)nc12)S(C)(=O)=O` [I-370, (1R,2S)—N-(2-(difluoromethyl)-7-((4-(1-methyl-1H-imidazol-5-yl)-2-(N-methylmethylsulfonamido)phenyl)amino)-3H-imidazo[4,5-b]pyridin-5-yl)-2-fluorocyclopropane-1-carboxamide] yielded a Kd of 0.1 to 0.5 nM.
`Cn1ccc(-c2ccc(Nc3cc(NC(=O)[C@H]4C[C@@H]4F)nc4[nH]c(C(F)F)nc34)c(S(C)(=O)=O)c2)n1` [I-371, (1R,2S)—N-(2-(difluoromethyl)-7-((4-(1-methyl-1H-pyrazol-3-yl)-2-(methylsulfonyl)phenyl)amino)-3H-imidazo[4,5-b]pyridin-5-yl)-2-fluorocyclopropane-1-carboxamide] returned a Kd of 0.1 to 0.5 nM.
Then `Cc1nc2c(Nc3ccc(-c4cnn(C)c4)cc3N(C)S(C)(=O)=O)cc(NC(=O)[C@H]3C[C@@H]3F)nc2[nH]1` [I-372, (1R,2S)-2-fluoro-N-(2-methyl-7-((4-(1-methyl-1H-pyrazol-4-yl)-2-(N-methylmethylsulfonamido)phenyl)amino)-3H-imidazo[4,5-b]pyridin-5-yl)cyclopropane-1-carboxamide], with 0.5 to 1 nM; and `COc1c(Nc2cc(NC(=O)[C@H]3C[C@@H]3F)nc3[nH]c(C)nc23)cccc1-c1ncn(C)n1` [I-373, (1R,2S)-2-fluoro-N-(7-((2-methoxy-3-(1-methyl-1H-1,2,4-triazol-3-yl)phenyl)amino)-2-methyl-3H-imidazo[4,5-b]pyridin-5-yl)cyclopropane-1-carboxamide], with 1 to 10 nM; and `Cc1nc2c(Nc3ccc(C4CCCCO4)cc3N(C)S(C)(=O)=O)cc(NC(=O)C3CC3)nc2[nH]1` (stereo not drawn) [I-375, N-(2-methyl-7-((2-(N-methylmethylsulfonamido)-4-(tetrahydro-2H-pyran-2-yl)phenyl)amino)-3H-imidazo[4,5-b]pyridin-5-yl)cyclopropanecarboxamide], with 0.1 to 0.5 nM.
For `Cc1nc2c(Nc3ccc(-c4cnn(C)c4)cc3N(C)S(C)(=O)=O)cc(NC(=O)C3CC3(F)F)nc2[nH]1` (stereo not drawn) [I-376, 2,2-difluoro-N-(2-methyl-7-((4-(1-methyl-1H-pyrazol-4-yl)-2-(N-methylmethylsulfonamido)phenyl)amino)-3H-imidazo[4,5-b]pyridin-5-yl)cyclopropane-1-carboxamide], the Kd is greater than 10 nM.
Regarding `Cc1nc2c(Nc3ccc(-c4ccn(C)n4)cc3S(C)(=O)=O)cc(NC(=O)C3CC3(F)F)nc2[nH]1` (stereo not drawn) [I-377, 2,2-difluoro-N-(2-methyl-7-((4-(1-methyl-1H-pyrazol-3-yl)-2-(methylsulfonyl)phenyl)amino)-3H-imidazo[4,5-b]pyridin-5-yl)cyclopropane-1-carboxamide], the Kd was 0.5 to 1 nM.
In turn, `Cc1nc2c(Nc3ccc(-c4cn(C)cn4)cc3S(C)(=O)=O)cc(NC(=O)C3CC3(F)F)nc2[nH]1` (stereo not drawn) [I-378, N-(7-((4-(1l2-imidazol-4-yl)-2-(methylsulfonyl)phenyl)amino)-2-methyl-3H-imidazo[4,5-b]pyridin-5-yl)-2,2-difluorocyclopropane-1-carboxamide] registered a Kd of 0.5 to 1 nM.
With `Cn1cncc1-c1ccc(Nc2cc(NC(=O)C3CC3(F)F)nc3[nH]c(C(F)F)nc23)c(S(C)(=O)=O)c1` (stereo not drawn) [I-379, N-(2-(difluoromethyl)-7-((4-(1-methyl-1H-imidazol-5-yl)-2-(methylsulfonyl)phenyl)amino)-3H-imidazo[4,5-b]pyridin-5-yl)-2,2-difluorocyclopropane-1-carboxamide], the Kd lay in the range of 0.1 to 0.5 nM.
Then `CN(c1cc(-c2cncn2C)ccc1Nc1cc(NC(=O)C2CC2(F)F)nc2[nH]c(C(F)F)nc12)S(C)(=O)=O` (stereo not drawn) [I-380, N-(2-(difluoromethyl)-7-((4-(1-methyl-1H-imidazol-5-yl)-2-(N-methylmethylsulfonamido)phenyl)amino)-3H-imidazo[4,5-b]pyridin-5-yl)-2,2-difluorocyclopropane-1-carboxamide], with 0.5 to 1 nM; and `Cn1cnc(-c2ccc(Nc3cc(NC(=O)C4CC4(F)F)nc4[nH]c(C(F)F)nc34)c(S(C)(=O)=O)c2)c1` (stereo not drawn) [I-381, N-(2-(difluoromethyl)-7-((4-(1-methyl-1H-imidazol-4-yl)-2-(methylsulfonyl)phenyl)amino)-3H-imidazo[4,5-b]pyridin-5-yl)-2,2-difluorocyclopropane-1-carboxamide], with 1 to 10 nM.
In turn, `Cc1nc2c(Nc3ccc(-c4cncn4C)cc3S(C)(=O)=O)cc(NC(=O)C3CC3(F)F)nc2[nH]1` (stereo not drawn) [I-382, 2,2-difluoro-N-(2-methyl-7-((4-(1-methyl-1H-imidazol-5-yl)-2-(methylsulfonyl)phenyl)amino)-3H-imidazo[4,5-b]pyridin-5-yl)cyclopropane-1-carboxamide] returned a Kd of 0.1 to 0.5 nM.
Next, `COc1cc(Nc2ccc(-c3ccn(C)n3)cc2S(C)(=O)=O)c2nc(C)[nH]c2n1` [I-383, 5-methoxy-2-methyl-N-(4-(1-methyl-1H-pyrazol-3-yl)-2-(methylsulfonyl)phenyl)-3H-imidazo[4,5-b]pyridin-7-amine]: greater than 10 nM; `Cc1nc2c(Nc3ccc(-c4cncn4C)cc3N(C)S(C)(=O)=O)cc(NC(=O)C3CC3(F)F)nc2[nH]1` (stereo not drawn) [I-384, 2,2-difluoro-N-(2-methyl-7-((4-(1-methyl-1H-imidazol-5-yl)-2-(N-methylmethylsulfonamido)phenyl)amino)-3H-imidazo[4,5-b]pyridin-5-yl)cyclopropane-1-carboxamide]: 0.5 to 1 nM.
Then `CN(c1cc(-c2cnn(C)c2)ccc1Nc1cc(NC(=O)C2CC2(F)F)nc2[nH]c(C(F)F)nc12)S(C)(=O)=O` (stereo not drawn) [I-385, N-(2-(difluoromethyl)-7-((4-(1-methyl-1H-pyrazol-4-yl)-2-(N-methylmethylsulfonamido)phenyl)amino)-3H-imidazo[4,5-b]pyridin-5-yl)-2,2-difluorocyclopropane-1-carboxamide], with 0.5 to 1 nM.
Next, `Cn1ccc(-c2ccc(Nc3cc(NC(=O)C4CC4(F)F)nc4[nH]c(C(F)F)nc34)c(S(C)(=O)=O)c2)n1` (stereo not drawn) [I-386, N-(2-(difluoromethyl)-7-((4-(1-methyl-1H-pyrazol-3-yl)-2-(methylsulfonyl)phenyl)amino)-3H-imidazo[4,5-b]pyridin-5-yl)-2,2-difluorocyclopropane-1-carboxamide]: 0.5 to 1 nM; `Cc1nc2c(Nc3ccc(C4CCCCO4)cc3S(C)(=O)=O)cc(NC(=O)C3CC3)nc2[nH]1` (stereo not drawn) [I-387, N-(2-methyl-7-((2-(methylsulfonyl)-4-(tetrahydro-2H-pyran-2-yl)phenyl)amino)-3H-imidazo[4,5-b]pyridin-5-yl)cyclopropanecarboxamide]: less than 0.1 nM; `Cc1nc2c(Nc3ccc(C4CCOC4)cc3S(C)(=O)=O)cc(NC(=O)C3CC3)nc2[nH]1` (stereo not drawn) [I-388, N-(2-methyl-7-((2-(methylsulfonyl)-4-(tetrahydrofuran-3-yl)phenyl)amino)-3H-imidazo[4,5-b]pyridin-5-yl)cyclopropanecarboxamide]: 0.1 to 0.5 nM.
As to `CS(=O)(=O)c1cc(C2CCOC2)ccc1Nc1cc(NC(=O)C2CC2)nc2[nH]c(C(F)F)nc12` (stereo not drawn) [I-389, N-(2-(difluoromethyl)-7-((2-(methylsulfonyl)-4-(tetrahydrofuran-3-yl)phenyl)amino)-3H-imidazo[4,5-b]pyridin-5-yl)cyclopropanecarboxamide], the Kd is 0.5 to 1 nM.
Next, `Cc1nc2c(Nc3ccc(C4CCCOC4)cc3S(C)(=O)=O)cc(NC(=O)C3CC3)nc2[nH]1` (stereo not drawn) [I-390, N-(2-methyl-7-((2-(methylsulfonyl)-4-(tetrahydro-2H-pyran-3-yl)phenyl)amino)-3H-imidazo[4,5-b]pyridin-5-yl)cyclopropanecarboxamide]: 0.1 to 0.5 nM.
In turn, `CS(=O)(=O)c1cc(C2CCCOC2)ccc1Nc1cc(NC(=O)C2CC2)nc2[nH]c(C(F)F)nc12` (stereo not drawn) [I-391, N-(2-(difluoromethyl)-7-((2-(methylsulfonyl)-4-(tetrahydro-2H-pyran-3-yl)phenyl)amino)-3H-imidazo[4,5-b]pyridin-5-yl)cyclopropanecarboxamide] returned a dissociation constant (Kd) of 0.1 to 0.5 nM.
Regarding `CS(=O)(=O)c1ccccc1Nc1cc(Nc2cc3c(nn2)CCC3)nc2[nH]c(C(F)F)nc12` [I-392], the dissociation constant Kd is less than 0.1 nM.
Then `COCCCc1csc(-c2ccc(Nc3cc(NC(=O)C4CC4)nc4[nH]c(C(F)F)nc34)c(S(C)(=O)=O)c2)n1` [I-393], with 0.5 to 1 nM.
With `Cc1nc2c(Nc3ccc(-c4cnn(C)c4C)cc3S(C)(=O)=O)cc(Nc3ccc(C(C)C)c(C#N)n3)nc2[nH]1` [I-394], the Kd lay in the range of 0.1 to 0.5 nM.
Then `CN=[S@](C)(=O)c1ccccc1Nc1cc(NC(=O)C2CC2)nc2[nH]c(C(F)F)nc12` [I-395], with 0.1 to 0.5 nM; and `CN=[S@@](C)(=O)c1ccccc1Nc1cc(NC(=O)C2CC2)nc2[nH]c(C(F)F)nc12` [I-396], with 1 to 10 nM; and `Cc1ncc(Nc2cc(Nc3ccc(C4CCCCO4)cc3S(C)(=O)=O)c3nc(C(F)F)[nH]c3n2)nc1C` (stereo not drawn) [I-397, 2-(difluoromethyl)-N5-(5,6-dimethylpyrazin-2-yl)-N7-(2-(methylsulfonyl)-4-(tetrahydro-2H-pyran-2-yl)phenyl)-3H-imidazo[4,5-b]pyridine-5,7-diamine], with 0.1 to 0.5 nM.
Turning to `Cc1nc2c(Nc3ccc(C4CCCCO4)cc3S(C)(=O)=O)cc(Nc3cnc(C)c(C)n3)nc2[nH]1` (stereo not drawn) [I-398, N5-(5,6-dimethylpyrazin-2-yl)-2-methyl-N7-(2-(methylsulfonyl)-4-(tetrahydro-2H-pyran-2-yl)phenyl)-3H-imidazo[4,5-b]pyridine-5,7-diamine], the dissociation constant Kd was less than 0.1 nM.
Next, `CC1(C)CC(c2ccc(Nc3cc(NC(=O)C4CC4)nc4[nH]c(C(F)F)nc34)c(S(C)(=O)=O)c2)CC(C)(C)O1` [I-399]: greater than 10 nM.
Next, `COC(C)c1ccc(Nc2cc(NC(=O)C3CC3)nc3[nH]c(C)nc23)c(S(C)(=O)=O)c1` (stereo not drawn) [I-400, N-(7-((4-(1-methoxyethyl)-2-(methylsulfonyl)phenyl)amino)-2-methyl-3H-imidazo[4,5-b]pyridin-5-yl)cyclopropanecarboxamide]: 0.1 to 0.5 nM.

The record behind these values is US10647713B2 (Nimbus Lakshmi, Inc., priority 2016, dated 2020).
